Patent publication US6552014B2, “Methods of inhibiting platelet activation with selective serotonin reuptake inhibitors” (HeartDrug Research, L.L.C., priority 1999, dated 2003)

Legend:
platelets = test: PFA-100 closure time, collagen/ADP cartridge; format: cell-based, human; conditions: whole blood from a healthy volunteer, increasing concentrations
Description: A Platelet-Function Analyzer referred to as PFA-100® (Dade Behring, Deerfield Ill.) was used. The PFA-100® is a high shear-inducing analyzer that simulates primary hemostasis after injury to a small vessel under flow conditions. The PFA-100® system measures the time required for a patient's blood sample to form a“platelet plug” in the first phase of blood clot formation. That time interval, which normally ranges from one to three minutes, is called “closure time.” The device provides a constant negative pressure that aspirates whole blood which comes into contact with the collagen coated membrane and then passes through the aperture. The time required to obtain occlusion of the aperture is digitally recorded.
The PFA-100® system permits detection of platelet dysfunction during primary hemostasis, the first phase of hemostasis or coagulation. The system consists of a microprocessor-controlled instrument and disposable test cartridges that measure how well a patient's platelets adhere and aggregate to form a platelet plug.
An in vitro system for the detection of platelet dysfunction, PFA-100™, has been developed. It provides a quantitative measure of platelet function in anticoagulated whole blood. The system comprises a microprocessor-controlled instrument and a disposable test cartridge containing a biologically active membrane. […]

Vitronectin receptor = test: Flow cytometry of platelet antigen expression, platelet rich plasma; format: cell-based, human; conditions: for Vitronectin (mean) log fluorescence intensity / Vitronectin (peak) log fluorescence intensity: PRP
Description: For ex vivo assessment of the SSRIs effect on a PAM, a level of a PAM can be assessed by flow cytometry by first obtaining a sample that comprises platelets and then contacting the sample with a platelet activation agonist, such as phorbol myristate acetate (PMA), ADP (adenosine diphosphate), thrombin, collagen, and/or TRAP (thrombin receptor activating peptide), under conditions suitable for activation of platelets in the sample. The sample is in contact with the agonist preferably for a period of time effective to maximally activate the platelets. […] Then the formation of the complex in the sample is determined (detected or measured). […] The blood-ACD mixture was centrifuged at 1000 r.p.m. for 10 minutes at room temperature. […] The PRP was then centrifuged at 3000 r.p.m. for 10 minutes. […] All cells were then divided into ten plastic capped tubes. Nine portions of washed platelets were incubated with 5 μfluorescein isothiocyanate (FITC)-conjugated antibodies in the dark at +4 °C for 30 minutes, and one part remained unstained and served as a negative control. […] The instrument was calibrated daily with fluorescence beads (CaliBRITE; Becton Dickinson) and measured FITC-conjugated fluorescence intensity. All parameters were obtained using four decade logarithmic amplification. The data was collected and stored in list mode, and then analyzed using CELLQuest® (version 1.2.2) software. Procedures are described in detail in (Gurbel, P. […] Serebruany, V. […] The levels of various PAMs were assess from samples of human volunteers.

PECAM-1 = test: as above; format: cell-based, human; conditions: PRP, desmethylsertraline 64.2 ng/ml
CPIa-IIa = test: as above; format: cell-based, human; conditions: PRP; healthy volunteers; desmethylsertraline 64.2 ng/ml
GP IIb = test: as above; format: cell-based, human; conditions: PRP, desmethylsertraline 64.2 ng/ml
[1] = single doses in volunteers; cited from earlier work
[2] = healthy volunteers, desmethylsertraline 31.1 ng/ml
[3] = healthy volunteers, desmethylsertraline 64.2 ng/ml
[4] = healthy volunteers, desmethylsertraline 143 ng/ml
[5] = post-angioplasty patient on aspirin, desmethylsertraline 31.1 ng/ml
[6] = post-angioplasty patient on aspirin, desmethylsertraline 64.2 ng/ml
[7] = post-angioplasty patient on aspirin, desmethylsertraline 143 ng/ml
[8] = post-angioplasty patient on aspirin
[9] = post-angioplasty patient on aspirin, sertraline 44.7 ng/ml
[10] = post-angioplasty patient on aspirin, sertraline 85.3 ng/ml

## N[C@H]1CC[C@@H](c2ccc(Cl)c(Cl)c2)c2ccccc21 [Desmethyl sertraline, N-desmethylsertraline]
platelets
  closure time (time for a platelet plug to form) (FIG. 11), in words: decrease in the time
Vitronectin receptor; [2]
  Vitronectin (mean) log fluorescence intensity: 677
  Vitronectin (peak) log fluorescence intensity: 620
Vitronectin receptor; [3]
  Vitronectin (mean) log fluorescence intensity: 623
  Vitronectin (peak) log fluorescence intensity: 508
Vitronectin receptor; [4]
  Vitronectin (mean) log fluorescence intensity: 732
  Vitronectin (peak) log fluorescence intensity: 670
Vitronectin receptor; [5]
  Vitronectin (mean) log fluorescence intensity: 504
  Vitronectin (peak) log fluorescence intensity: 560
Vitronectin receptor; [6]
  Vitronectin (mean) log fluorescence intensity: 380
  Vitronectin (peak) log fluorescence intensity: 425
Vitronectin receptor; [7]
  Vitronectin (mean) log fluorescence intensity: 482
  Vitronectin (peak) log fluorescence intensity: 544
PECAM-1; healthy volunteers
  PECAM-1 (peak) log fluorescence intensity: 91
PECAM-1; [8]
  PECAM-1 (mean) log fluorescence intensity: 105
  PECAM-1 (peak) log fluorescence intensity: 84
CPIa-IIa
  CPIa-IIa (mean) log fluorescence intensity: 42
  CPIa-IIa (peak) log fluorescence intensity: 40
GP IIb; healthy volunteers
  GP IIb (mean) log fluorescence intensity: 37
GP IIb; [8]
  GP IIb (peak) log fluorescence intensity: 20

## CN[C@H]1CC[C@@H](c2ccc(Cl)c(Cl)c2)c2ccccc21 [sertraline]
platelets
  closure time (time for a platelet plug to form) (FIG. 11), in words: decrease in the time
Vitronectin receptor; healthy volunteers, sertraline 18.1 ng/ml
  Vitronectin (mean) log fluorescence intensity: 810
Vitronectin receptor; healthy volunteers, sertraline 44.7 ng/ml
  Vitronectin (mean) log fluorescence intensity: 510
Vitronectin receptor; healthy volunteers, sertraline 85.3 ng/ml
  Vitronectin (mean) log fluorescence intensity: 667
Vitronectin receptor; post-angioplasty patient on aspirin, sertraline 18.1 ng/ml
  Vitronectin (mean) log fluorescence intensity: 405
Vitronectin receptor; [9]
  Vitronectin (mean) log fluorescence intensity: 344
  Vitronectin (peak) log fluorescence intensity: 393
Vitronectin receptor; [10]
  Vitronectin (mean) log fluorescence intensity: 529
  Vitronectin (peak) log fluorescence intensity: 585
Vitronectin receptor; plasma concentration 85.3 ng/ml, equivalent to 200 mg/daily
  surface expression of vitronectin receptor, in words: diminished surface expression
[1]
  dose at which sedative potential is evident: ≥ 200 mg/daily
